Data reported in patent US9145376B2, “Quinazolinone inhibitors of dynein” (The Rockefeller University, priority 2011, dated 2015).

Key:
[1] = system: Hh pathway (Gli-responsive firefly luciferase reporter in Shh-LIGHT2 cells); test: Shh-LIGHT2 assay for Hh pathway activity; assay type: cell-based; conditions: 10% Shh-conditioned medium, 24 hours, firefly/Renilla luciferase ratio
Experimental: Shh-N-conditioned medium was prepared as described by Chen et al., Proc. Natl. Acad. Sci. U.S.A. 99, 14071 (2002). Shh-LIGHT2 cells [J. Taipale et al., Nature 406, 1005 (2000)], an NIH-3T3-based cell line containing a stably integrated Gli-responsive firefly luciferase reporter and a constitutive thymidine kinase promoter-driven Renilla luciferase expression construct (pRLTK, Promega), were cultured in DMEM containing 10% calf serum. 100 U/mL penicillin, and 0.1 mg/mL streptomycin. The cells were seeded into 96-well plates at a density of 30,000 cells/well, and the following day they were treated with individual compounds or DMSO in DMEM containing 0.5% calf serum, 10% Shh-conditioned medium, and the antibiotics described above. After being cultured for another 24 hours, the cells were lysed and their firefly and Renilla luciferase activities were determined using, a dual luciferase reporter kit (Promega) and a microplate luminometer (Veritas). Average values representing the firefly luciferase/Renilla luciferase ratio from triplicate samples were used to construct dose response profiles for each compound. Dose-response data from three separate experiments were independently curve-fitted with a variable slope, sigmoidal dose-response algorithm using Prism software, and the resulting IC50 values were used to generate an average IC50 for each compound.

[2] = system: Gli3 processing in Shh-EGFP cells; test: Quantitative assessment of Hh ligand-dependent Gli3 processing; assay type: cell-based; conditions: Shh-EGFP cells stimulated with Shh-N, 16 hours
Experimental: Shh-EGFP cells were seeded into 12-well plate at a density of 120,000 cells/well in DMEM containing 10% calf serum. 100 U/mL penicillin, and 0.1 mg/mL streptomycin. After being cultured for 24 hours, the cells were transferred into DMEM containing 0.5% calf serum, 10% Shh-conditioned medium, the antibiotics described above, and either individual compounds or DMSO. The cells were cultured for an additional 16 hours, washed with PBS, and then lysed by incubation on ice with SDS-PAGE loading buffer composed of 8% glycerol, 20 mM Tris-HCl, pH 6.8, 2% SDS, 100 mM DTT, 1 mM PMSF, 20 mM NaF, 2 mM Na3VO4, and an EDTA-free protease inhibitor cocktail (Roche). The lysed samples were heated to 100° C. for 7 minutes, loaded onto 3-8% Criterion XT Tris-Acetate polyacrylamide gels (Bio-Rad), electrophoresed in XT Tricine buffer (Bio-Rad), and transferred onto PVDF membranes. The membranes were dehydrated with methanol and probed overnight at 4° C. with goat polyclonal anti-Gli3 antibody (0.4 μg/mL: R & D Systems, AF3690) in PBS containing 4% non-fat dry milk and 0.1% Tween-20 (immunoblot blocking buffer). The blots were then washed 4×1 minutes in PBS and incubated with horseradish peroxidase-conjugated bovine polyclonal anti-goat IgG antibody (0.04 μg/mL, Jackson ImmunoResearch, 805-035-180) in immunoblot blocking buffer for 1 hour at room temperature. The membranes were next washed 4×1 minutes in PBS and visualized using SuperSignal West Dura Extended Duration substrate (Thermo Scientific) and a ChemiDoc XRS imaging system (Bio-Rad). Band intensities of Gli3FL and Gli3R where quantified using Quantity One software (Bio-Rad), and five independent experiments were used to determine the average Gli3FL/Gli3R ratio for each compound.

[3] = target: T1, cytoplasmic dynein purified from bovine brain (Bos taurus, UniProt A0A3Q1NEU9); test: Microtubule surface gliding assay, dynein; assay type: biochemical; conditions: for dynein-dependent microtubule movement (gliding velocity): 100 μM; for IC50: dynein-dependent microtubule gliding in vitro, read-out: IC50 of microtubule gliding inhibition
T1 construct: Cytoplasmic dynein was purified from bovine brain tissue; from tissue; host or cells: bovine brain
T1 sequence (A0A3Q1NEU9 1-4657): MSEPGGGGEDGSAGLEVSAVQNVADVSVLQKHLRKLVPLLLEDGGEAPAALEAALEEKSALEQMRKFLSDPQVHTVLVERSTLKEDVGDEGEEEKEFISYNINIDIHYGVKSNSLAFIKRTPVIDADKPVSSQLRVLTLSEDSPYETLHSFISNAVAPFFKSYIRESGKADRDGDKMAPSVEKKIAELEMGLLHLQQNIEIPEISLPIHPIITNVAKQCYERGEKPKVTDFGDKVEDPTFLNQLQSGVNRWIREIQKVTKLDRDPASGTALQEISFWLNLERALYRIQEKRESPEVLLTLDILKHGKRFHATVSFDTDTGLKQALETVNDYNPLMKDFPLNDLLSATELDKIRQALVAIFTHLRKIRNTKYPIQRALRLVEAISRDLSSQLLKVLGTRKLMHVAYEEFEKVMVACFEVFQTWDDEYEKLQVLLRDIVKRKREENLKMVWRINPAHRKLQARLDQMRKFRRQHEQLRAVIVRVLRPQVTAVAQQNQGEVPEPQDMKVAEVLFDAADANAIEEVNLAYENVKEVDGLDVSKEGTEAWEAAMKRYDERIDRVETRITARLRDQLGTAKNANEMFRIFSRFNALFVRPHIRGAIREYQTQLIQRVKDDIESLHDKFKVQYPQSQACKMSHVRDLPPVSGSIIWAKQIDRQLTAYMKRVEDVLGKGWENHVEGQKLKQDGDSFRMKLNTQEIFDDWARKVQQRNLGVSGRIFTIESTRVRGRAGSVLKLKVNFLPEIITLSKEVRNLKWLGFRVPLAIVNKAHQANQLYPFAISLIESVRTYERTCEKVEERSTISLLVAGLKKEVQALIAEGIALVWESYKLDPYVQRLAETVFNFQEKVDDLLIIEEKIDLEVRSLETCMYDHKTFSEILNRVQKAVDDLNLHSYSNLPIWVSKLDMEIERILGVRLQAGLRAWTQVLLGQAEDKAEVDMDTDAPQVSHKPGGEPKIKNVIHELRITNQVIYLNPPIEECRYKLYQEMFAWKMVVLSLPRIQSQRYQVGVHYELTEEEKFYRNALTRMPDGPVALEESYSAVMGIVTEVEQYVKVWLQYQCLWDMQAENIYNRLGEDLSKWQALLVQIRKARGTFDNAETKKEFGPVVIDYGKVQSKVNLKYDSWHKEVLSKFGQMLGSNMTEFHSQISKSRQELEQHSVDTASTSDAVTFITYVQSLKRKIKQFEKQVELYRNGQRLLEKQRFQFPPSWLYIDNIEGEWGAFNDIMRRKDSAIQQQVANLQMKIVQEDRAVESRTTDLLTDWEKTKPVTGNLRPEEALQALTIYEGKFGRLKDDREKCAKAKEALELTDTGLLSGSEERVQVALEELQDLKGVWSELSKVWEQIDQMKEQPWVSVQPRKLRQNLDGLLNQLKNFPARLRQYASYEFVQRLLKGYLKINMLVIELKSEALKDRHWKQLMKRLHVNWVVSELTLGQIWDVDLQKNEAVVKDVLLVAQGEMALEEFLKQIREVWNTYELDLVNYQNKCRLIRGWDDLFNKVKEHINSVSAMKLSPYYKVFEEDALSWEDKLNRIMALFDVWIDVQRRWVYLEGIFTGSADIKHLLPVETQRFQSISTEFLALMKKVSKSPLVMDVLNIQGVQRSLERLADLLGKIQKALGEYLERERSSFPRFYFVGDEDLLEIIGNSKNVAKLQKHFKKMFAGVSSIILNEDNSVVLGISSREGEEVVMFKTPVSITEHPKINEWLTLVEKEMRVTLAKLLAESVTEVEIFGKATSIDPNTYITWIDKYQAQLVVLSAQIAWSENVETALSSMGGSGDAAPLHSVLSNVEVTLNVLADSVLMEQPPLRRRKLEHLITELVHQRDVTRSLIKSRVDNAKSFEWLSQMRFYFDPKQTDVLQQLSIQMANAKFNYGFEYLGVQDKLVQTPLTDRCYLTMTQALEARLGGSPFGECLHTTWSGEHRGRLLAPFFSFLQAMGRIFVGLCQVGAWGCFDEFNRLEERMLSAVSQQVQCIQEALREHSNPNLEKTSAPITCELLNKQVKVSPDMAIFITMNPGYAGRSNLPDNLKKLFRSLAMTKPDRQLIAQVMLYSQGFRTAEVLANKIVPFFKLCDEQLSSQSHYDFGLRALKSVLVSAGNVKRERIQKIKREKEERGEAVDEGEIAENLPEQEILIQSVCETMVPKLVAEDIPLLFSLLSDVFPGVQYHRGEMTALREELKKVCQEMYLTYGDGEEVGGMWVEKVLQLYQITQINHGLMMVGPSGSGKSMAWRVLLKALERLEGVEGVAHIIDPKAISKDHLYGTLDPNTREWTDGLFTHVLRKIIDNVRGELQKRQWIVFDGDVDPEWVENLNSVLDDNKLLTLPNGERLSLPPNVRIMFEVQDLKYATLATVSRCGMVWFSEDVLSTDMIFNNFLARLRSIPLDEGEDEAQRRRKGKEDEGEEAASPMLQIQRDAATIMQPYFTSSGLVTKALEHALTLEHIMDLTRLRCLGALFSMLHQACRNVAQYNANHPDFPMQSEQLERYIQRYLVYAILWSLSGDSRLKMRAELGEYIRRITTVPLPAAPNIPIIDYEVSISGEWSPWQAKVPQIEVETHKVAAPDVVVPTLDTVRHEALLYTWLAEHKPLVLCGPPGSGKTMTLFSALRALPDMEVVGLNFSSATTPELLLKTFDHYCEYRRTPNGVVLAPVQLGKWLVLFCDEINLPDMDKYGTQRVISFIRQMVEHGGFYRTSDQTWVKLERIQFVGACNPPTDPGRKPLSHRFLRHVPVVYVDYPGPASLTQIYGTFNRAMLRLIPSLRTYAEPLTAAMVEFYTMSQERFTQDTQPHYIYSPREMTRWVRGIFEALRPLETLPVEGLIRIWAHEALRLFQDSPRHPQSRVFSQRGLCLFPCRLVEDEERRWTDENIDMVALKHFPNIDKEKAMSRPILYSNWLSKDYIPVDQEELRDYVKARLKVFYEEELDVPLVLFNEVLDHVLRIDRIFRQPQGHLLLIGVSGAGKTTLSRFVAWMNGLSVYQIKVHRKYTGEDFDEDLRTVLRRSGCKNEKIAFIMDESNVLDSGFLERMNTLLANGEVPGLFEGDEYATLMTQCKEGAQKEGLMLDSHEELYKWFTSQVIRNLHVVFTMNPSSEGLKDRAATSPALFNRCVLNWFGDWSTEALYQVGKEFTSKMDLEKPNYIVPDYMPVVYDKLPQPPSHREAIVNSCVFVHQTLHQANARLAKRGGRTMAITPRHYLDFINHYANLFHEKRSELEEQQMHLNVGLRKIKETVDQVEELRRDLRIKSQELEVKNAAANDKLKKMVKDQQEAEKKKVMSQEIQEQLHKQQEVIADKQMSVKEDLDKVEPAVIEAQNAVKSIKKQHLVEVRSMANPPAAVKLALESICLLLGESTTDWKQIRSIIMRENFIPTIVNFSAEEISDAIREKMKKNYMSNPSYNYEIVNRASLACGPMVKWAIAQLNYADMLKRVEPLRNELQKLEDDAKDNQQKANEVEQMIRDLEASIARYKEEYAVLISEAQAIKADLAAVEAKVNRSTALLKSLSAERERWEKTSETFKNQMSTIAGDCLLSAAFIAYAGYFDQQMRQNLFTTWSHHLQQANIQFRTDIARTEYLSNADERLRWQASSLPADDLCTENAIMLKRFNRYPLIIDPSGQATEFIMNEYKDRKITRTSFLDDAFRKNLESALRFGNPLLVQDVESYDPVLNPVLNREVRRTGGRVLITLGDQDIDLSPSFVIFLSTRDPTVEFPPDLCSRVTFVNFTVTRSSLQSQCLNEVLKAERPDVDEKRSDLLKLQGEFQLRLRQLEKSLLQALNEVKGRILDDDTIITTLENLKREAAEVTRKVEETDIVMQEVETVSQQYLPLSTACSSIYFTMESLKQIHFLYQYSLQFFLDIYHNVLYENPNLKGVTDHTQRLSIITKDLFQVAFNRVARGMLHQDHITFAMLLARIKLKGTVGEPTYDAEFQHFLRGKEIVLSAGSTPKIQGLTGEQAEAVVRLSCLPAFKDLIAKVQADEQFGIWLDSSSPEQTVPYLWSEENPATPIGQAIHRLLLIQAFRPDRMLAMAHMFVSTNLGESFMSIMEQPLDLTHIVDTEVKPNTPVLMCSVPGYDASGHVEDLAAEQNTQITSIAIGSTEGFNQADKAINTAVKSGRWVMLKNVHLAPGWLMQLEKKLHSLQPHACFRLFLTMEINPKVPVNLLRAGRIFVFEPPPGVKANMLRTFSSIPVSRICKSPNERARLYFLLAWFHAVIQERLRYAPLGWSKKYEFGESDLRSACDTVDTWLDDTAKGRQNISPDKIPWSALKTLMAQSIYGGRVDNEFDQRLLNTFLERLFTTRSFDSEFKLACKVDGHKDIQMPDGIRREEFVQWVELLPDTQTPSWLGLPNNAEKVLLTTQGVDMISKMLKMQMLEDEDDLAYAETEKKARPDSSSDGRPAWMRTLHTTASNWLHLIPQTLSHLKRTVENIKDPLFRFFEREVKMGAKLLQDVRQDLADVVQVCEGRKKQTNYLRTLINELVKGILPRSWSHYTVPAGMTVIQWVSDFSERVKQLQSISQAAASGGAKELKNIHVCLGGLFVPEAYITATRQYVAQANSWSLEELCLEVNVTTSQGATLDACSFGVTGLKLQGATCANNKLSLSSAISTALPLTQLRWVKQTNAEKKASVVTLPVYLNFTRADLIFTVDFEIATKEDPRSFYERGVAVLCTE
Experimental: To more directly examine whether cytoplasmic dynein is the direct target of the ciliobrevins, we evaluated their effects on dynein-dependent microtubule gliding in vitro. Cytoplasmic dynein was purified from bovine brain tissue, adsorbed onto glass slides, and then incubated with fluorescently labeled microtubules and ATP in the presence or absence of these compounds. We then imaged and quantified the resulting microtubule gliding velocities by epifluorescence microscopy.
Cytoplasmic dynein was purified from bovine brains as described by Bingham et al. [Methods Enzymol. 298, 171 (1998)]. K560, a 560-amino acid N-terminal fragment of human conventional kinesin (kinesin-1) with a C-terminal His-tag, was expressed in bacteria and purified as described by Woehlke et al., [Cell 90, 207 (1997)]. Motility assays were performed on a Zeiss Axiovert 200M wide-field microscope equipped with a Zeiss 100×/1.45 NA α-Plan-Fluar objective. Data were captured with an EM-CCD camera (iXon DU-897, Andor Technology) with a 0.3-second exposure time and frame rate of 0.5 second^−1. Microtubule gliding assays were performed as described by Kapoor and Mitchison [Proc. Natl. Acad. Sci. U.S.A. 96, 9106 (1999)] with some modifications. An approximately 6 μL flow chamber was filled with motor protein (100 μg/mL dynein or 50 μg/mL K560) in motor dilution buffer (80 mM Pipes, 1 mM EGTA, 2 mM MgCl2, 2 mM DTT, 50 μM ATP, pH 6.8 with KOH). After a 2-minute incubation, excess protein was washed out with […] of PEM80 buffer (80 mM Pipes, 1 mM EGTA, 2 mM MgCl2, pH 6.8 with KOH) and the surface was blocked against non-specific microtubule binding by filling the chamber with blocking protein (0.5 mg/mL α-casein for dynein experiments and 1 mg/mL BSA for K560 experiments) in motor dilution buffer. After 2 minutes the chamber was perfused with 18 μL of reaction mix (PEM80, 40 mM KCl, blocking protein [1 mg/mL a-casein for dynein experiments; 1 mg/mL BSA for K560 experiments], 2 mM MgATP, 20 μM taxol, 0.1 μM rhodamine-labeled microtubules, oxygen depletion system [4 mM DTT, 2 mM glucose, 40 μg/mL glucose oxidase, 35 μg/mL catalase], 2.5% DMSO, and test compounds as appropriate). The flow chamber was then sealed with valap. After allowing the microtubules to bind to the surface for 5 minutes, the gliding microtubules were visualized by time-lapse fluorescence microscopy. Velocities were measured by kymography using Metamorph software (Molecular Devices), and the velocity for each microtubule was determined from the total distance during the time observed.
For washout experiments, the chamber was left unsealed after the initial reaction mix containing inhibitor was added. Microtubules were allowed to bind to the surface for 5 minutes, and then a time-lapse movie was acquired. The inhibitor was then washed out of the chamber by flowing in 20 μL of fresh reaction mix (PEM80, 40 mM KCl, 1 mg/mL α-casein, 2 mM MgATP, 20 μM taxol, oxygen depletion system, and 2.5% DMSO) without additional microtubules or inhibitor. The chamber was sealed, and additional time-lapse movies were acquired.

[4] = system: primary cilia of Shh-EGFP cells; test: Quantitative assessment of ciliogenesis (Arl13b staining, cilia size); assay type: cell-based; conditions: 24 hours

SMILES | IC50 [1] [µM] | Gli3FL/Gli3R ratio [2] | Shh-N-dependent Gli3FL phosphorylation [2] | dynein-dependent microtubule movement (gliding velocity) [3] | IC50 [3] [µM] | cilia size in response to increasing concentration (FIG. 1) [4]
N#C/C(C(=O)c1ccc(Cl)cc1Cl)=C1\NC(=O)c2ccccc2N1 [Example 1, 3-(2,4-dichlorophenyl)-3-oxo-2-(4-oxo-3,4-dihydroquinazolin-2(1H)-ylidene)propanenitrile] | 9.9 | altered the Gli3FL/Gli3R ratio | reduced | at least five-fold | 30 | dose-dependent decrease in cilia size
N#C/C(C(=O)c1ccc(Cl)cc1)=C1\NC(=O)c2ccccc2N1 [Example 2, 3-(4-chlorophenyl)-3-oxo-2-(4-oxo-3,4-dihydroquinazolin-2(1H)-ylidene)propanenitrile] | 5.2 | – | – | minimal effects | – | –
N#C/C(C(=O)c1ccccc1)=C1\NC(=O)c2ccccc2N1 [Example 16, 3-oxo-2-(4-oxo-3,4-dihydroquinazolin-2(1H)-ylidene)-3-phenylpropanenitrile] | 23 | – | – | minimal effects | – | no decrease in cilia size
N#C/C(C(=O)c1ccc(Cl)cc1Cl)=C1\NC(=O)c2ccc(Cl)cc2N1 [Example 31, 2-(7-chloro-4-oxo-3,4-dihydroquinazolin-2(1H)-ylidene)-3-(2,4-dichlorophenyl)-3-oxo-propanenitrile] | 15 | altered the Gli3FL/Gli3R ratio | reduced | at least five-fold | 40 | –
